In data set [1] the test system is locomotor activity of rats. As to the kind of experiment: Time-dependent effects on locomotor activity in rats. Conditions: SD rats, 1.3 μmol/kg. In kind it is in vivo, rat. The protocol: Rats were placed into the detection box after a single intragastric administration at different time points, and two rats from each group were used in each round of the experiment. The TopScan monitoring system was used to record and analyze the locomotor activity of the rats in different periods (0–1, 1–2, 3–4, 5–6, 6–7, and 7–8 h) after administration, and the RR was calculated as previously described.

The target in the next data set is T1, rat VMAT2 (Rattus norvegicus, UniProt Q01827).
T1 construct: in vitro [^3H]DA uptake assay in rat striatal synaptosomes; from tissue; host or cells: rat striatal synaptosomes / vesicular suspension
As to the kind of experiment: [3H]DA uptake assay in rat striatal synaptosomes. In kind it is biochemical. How it is done:
[^3H]DA (dihydroxyphenylethyethylamine, 3,4-[ring-2,5,6-^3H]; specific activity, 28.0 Ci/mmol) was purchased from Perkin Elmer. […] After drying, the filter plate was sealed with unifilter-96 back sealing tape and added 50 μl of microscint-20 (Perkin Elmer), then sealed the top of the filter plate with TopSeal-A. The radioactivity was measured by a TopCount scintillation counter. GraphPad Prism 5.0 was used to analyze data.

Data set [2] can be described thus: Bidirectional permeability in Caco-2 cell monolayers. It is filed as in vitro ADME. The settings on record: human, Caco-2, with or without verapamil 30 μM (range covers both); 2.0, 10.0, and 100 µM, presence or absence of verapamil 30 μM, 2 h; read-out: mean Papp (AP→BL). The protocol:
(§1) Caco-2 cells (ATCC, United States) were seeded on a 96-multiwell insert system (Corning, United States) at a density of 1.0 × 10^5 cells/cm^2. After about 24 days of culture, […] permeability was measured to evaluate the integrity of Caco-2 cell monolayers, and the percent of lucifer yellow in basolateral well which should be less than 1%. Before initiating the transport studies, the cell monolayers were washed with warm HBSS. […] Aliquots from the receiver chamber were collected at 2 h after incubation and stored at −20°C until analysis via LC-MS/MS. All experiments were conducted in triplicate. Permeability coefficient (Papp) and the efflux ratio (ER = P app (BL→AP)/P app (AP→BL)) were calculated.

The test system of the next data set is Caco-2 cell monolayers. The data set is described as above. In kind it is in vitro ADME. How it is done: as §1
Data set [3] can be described thus: PK in dogs after single oral or intravenous dose. In kind it is in vivo, dog. The protocol:
Male beagle dogs were randomly divided into four groups. […] The dogs were fasted for 12 h before treatment and 4 h after treatment, but they were granted free access to water. Blood was collected from the vein before administration and 0.083 (only for injection groups), 0.25, 0.5, 1, 2, 3, 4, 6, 8, 12 and 24 h, and placed it in heparinized tubes, and centrifuged it at 8,000 rpm for 10 min at 4°C to separate the plasma, which we stored at −20 °C until analysis. The plasma samples were pretreated by protein precipitation with acetonitrile and quantitated by the validated LC-MS/MS (Shimadzu Exion-Triple Quad 4500) method.
The system consisted of an Exion UHPLC system (Shimadzu, Japan) and a Triple Quad 4500 mass spectrometer (AB Sciex, United States) with an electrospray ionization source. Multiple reaction monitoring in the positive ionization mode was applied to measure analytes. Chromatographic separation was performed on a Acquity BEH C18 column (50 × 2.1 mm i. d., 1.7 μm, Waters, United States). The mobile phase was composed of 0.1% FA in water (A) and 0.1% FA in acetonitrile (B), and the flow rate was 0.4 ml/min. The elution conditions were the following linear gradient: 0–0.4 min: 90% A, 0.4–0.6 min: 60% A, 0.6–1.2 min: 10% A, 1.2–2.2 min: 10% A, 2.2–2.3 min: 90% A, 2.3–3.0 min: 90% A. The optimized parameters were as follows: the spray voltage 5.5 kV, source temperature 550 °C, pressure of source gas 1 and gas 2: 55psi, pressure of curtain gas: 30psi, and the DP, EP and CE voltage was 30,6 and 40 eV, respectively.

For data set [4], the system named is locomotor activity of rats. The experiment in a line: Dose-dependent effects on locomotor activity in rats. It is filed as in vivo, rat. Conditions: for reduction rate (RR) of locomotion: 0.5-[…] after dosing. How it is done: Before administration, animals were transported to the test room and allowed to acclimate for at least 1 h. Immediately after drug administration, rats were placed into activity chambers to assess their basal locomotor activity using the TopScan monitoring system. The total travel distance was recorded from 0.5 to 1.5 h after administration in intervals of 10 min.

For another data set, the target named is T2, rat brain VMAT2 (Rattus norvegicus, UniProt Q01827).
T2 construct: the whole rat brain (excluding the cerebellum) or striatal were homogenized; tissue Eurofins Panlabs (assay performed by); host or cells: rat brain (without cerebellum) or striatum, synaptic vesicle suspension
The experiment in a line: VMAT2 binding assay (inhibition of [3H]HTBZ binding). The settings on record: ratio of Ki vs HTBZ.

Data set [5] has as its system dopamine receptors, serotonin receptors, adrenergic receptors, dopamine transporter, norepinephrine transporter, five serotonin transporter. As to the kind of experiment: Multi-target activity screen of SpectrumScreen Panel (Eurofins screen). The settings on record: serotonin transporters, and so on.

T1 sequence (Q01827 whole entry): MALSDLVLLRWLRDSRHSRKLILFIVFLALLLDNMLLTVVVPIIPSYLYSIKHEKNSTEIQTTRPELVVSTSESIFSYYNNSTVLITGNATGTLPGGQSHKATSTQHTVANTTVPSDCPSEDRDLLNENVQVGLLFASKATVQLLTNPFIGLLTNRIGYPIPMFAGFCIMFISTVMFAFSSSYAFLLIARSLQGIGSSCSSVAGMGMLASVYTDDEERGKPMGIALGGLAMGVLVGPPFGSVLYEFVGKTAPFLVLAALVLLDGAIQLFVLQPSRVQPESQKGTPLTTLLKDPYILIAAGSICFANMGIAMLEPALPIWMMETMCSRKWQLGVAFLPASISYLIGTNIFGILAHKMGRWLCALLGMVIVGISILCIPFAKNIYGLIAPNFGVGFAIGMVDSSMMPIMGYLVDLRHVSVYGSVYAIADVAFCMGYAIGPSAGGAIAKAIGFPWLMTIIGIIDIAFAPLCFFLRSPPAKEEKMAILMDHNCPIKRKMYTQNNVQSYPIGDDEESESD
T2 sequence (Q01827 whole entry): as above
Experimental for rat brain VMAT2: In brief, the whole rat brain (excluding the cerebellum) or striatal were homogenized in 20 ml of ice-cold sucrose solution (0.32 M). […] The samples were centrifuged at 20,000 g at 4°C for 20 min, then 20 ml of MgSO4 solution (1 mM) was added to the supernatant.
A 96-well plate was used for the assay in duplicate. […] Samples were preincubated for 30 min at room temperature. […] All reactions were terminated using vacuum filtration over a GF/B glass fiber filter pretreated with 0.5% BSA. […] Radioactivity retained on the filters was determined by liquid scintillation counter. […] IC50 values were determined by a nonlinear least-squares regression analysis and Ki was calculated.

As for `COc1cc2c(cc1OCC(F)(F)F)CCN1CC(CC(C)C)C(O)CC21` (single isomer, unassigned; (+)) [(+)-13e, (+)-9-(2,2,2-trifluoroethoxy)-α-dihydrotetrabenazine], the “duration of significant inhibition of locomotor activity” value in data set [1] is “at least 8 h”. In addition, the concentration for an effect of 90% (IC90) at rat VMAT2 ([3H]DA uptake, rat striatal synaptosomes) turned out to be 34.1 nM. For the same compound, the “inhibitory effect on [3H]DA uptake stronger than that of HTBZ” value at rat VMAT2 (ratio of IC50 vs HTBZ) is given as “approximately 5 fold”. Further, in data set [2], the Papp A→B at 2 h fell in the range of 26 to 35 ×10⁻⁶ cm/s. In addition, in the data set with Caco-2 cell monolayers, the “permeability across the Caco-2 cell monolayer” value is reported as “high permeability”. The “substrate of P-gp or breast cancer resistance protein (BCRP)” value with Caco-2 cell monolayers (efflux not observed) was “unlikely to be a substrate”. Also, the “V, V/F” value is 5.4 ± 1.1 L/kg in data set [3] (dog, single intravenous dose 0.6 μmol/kg) and 18.8 ± 9.2 L/kg in data set [3] (dog, single oral dose 3 μmol/kg). The clearance in data set [3] (dog, single intravenous dose 0.6 μmol/kg, read-out: Cl, Cl/F (converted)) is 23.3 mL/min/kg. Also, in data set [3] (dogs, oral administration at an equivalent dose), the “Cmax smaller than that of VBZ” value is listed as 2.9 fold. In addition, the “Cmax larger than that of HTBZ” value in data set [3] (dogs, oral administration at an equivalent dose (HTBZ from VBZ)) was 7.7 fold. The bioavailability in data set [3] (male, beagle, dog, plasma, dogs, oral 3 μmol/kg vs intravenous 0.6 μmol/kg, read-out: absolute oral bioavailability) is 75.9%. In addition, the CL/F in data set [3] (male, beagle, plasma, 3 umol/kg, dog, single oral dose 3 μmol/kg) is 31.7 mL/min/kg. Moreover, in data set [4] (SD rats, first dose with significant inhibition of locomotor activity vs NS (p < 0.05)), the starting effective dose was 0.32 µmol/kg. Moreover, the “reduction rate (RR) of locomotion” value in data set [4] (SD rats, single oral gavage 0.32 μmol/kg) was determined as 58.6%; in data set [4] (SD rats, single oral gavage 1.3 μmol/kg), 95.5%. For the same compound, in data set [4] (rat locomotor activity), the “PD effect stronger than that of VBZ in vivo” value is “approximately 4 fold”. Further, the “affinity for VMAT2 stronger than that of HTBZ” value at rat brain VMAT2 is on record as about 3 fold. Besides, the “effects in multi-target activity screen” value in data set [5] is on record as “no effects”.

Values taken from PMC8689140 (Frontiers in Pharmacology, 2021).
